Tests used:
[1] = Crystal form conversion (heat treatment, suspension competition test, DSC analysis); assay type: physicochemical; settings: for Crystal form conversion / relative stability in suspension competition test: equal amounts mixed, RT/50, magnetic stirring ~1000 rpm, about 20 hours
Source text: The mutual conversion relationship among the A, B, C, D crystal forms of the sodium salt is further studied in this embodiment by heat treatment under nitrogen protection and suspension competition test.
However, the methods of heating, suspension pulping as well as grinding can not study the thermodynamic conversion relationship between crystal form A and crystal form D. In order to further study the thermodynamic conversion relationship of crystal form A and crystal form D, analyzed from the DSC pattern, the DSC of crystal form A is shown in FIG. 2, and the DSC of crystal form D is shown in FIG. 11, the melting point of crystal form A is higher than that of crystal form D, whereas the enthalpy of melting of crystal form A is much lower than that of crystal form D. It may be judged from the thermodynamic stability relationship table that if TA>TD, ΔHf, A>ΔHf, D, crystal form A and D is a univariate relationship, crystal form A is stable, if TA>TD, ΔHf, A<ΔHf, D, crystal forms A and D are reciprocal relationships, if the temperature is higher than the transcrystallization temperature, crystal form A is stable, and if the temperature is lower than the transcrystallization temperature, crystal form D is stable.

[2] = Hygroscopicity (vapor sorption analyser, DVS); assay type: physicochemical; settings: for Percentage weight gain by moisture absorption: 90% RH, 25° C.; for Hygroscopicity (in words): according to Table 7, 90% RH
Experimental: Single crystalline sample of compound TJ01-013 is tested using a Waters vaporsorption analyser. Taking a dry weighing tray, and laying a single sample of crystal form flat in the weighing tray, and the volume of the loaded samples is about ⅓ to ⅔ of that of the weighing tray. Instrument parameters are set as follows: temperature: 25° C.; equilibrium: dm/dt=0.01%/min (minimum time: 10 minutes, and maximum time: 180 minutes); drying: drying 120 minutes under 0% RH; RH (%) testing gradient: 10%; RH (%) test gradient range: 0%-90%-0%.

Compound	Percentage weight gain by moisture absorption [2] [%]	Hygroscopicity (in words) [2]	other results
O=C(O)C[S+]([O-])c1cc(NS(=O)(=O)c2ccc(Br)cc2)c2ccccc2c1O (stereo not drawn) [Embodiment 1]			Crystal form conversion / relative stability in suspension competition test ([1]; listed as crystal form A): more stable than crystal form B, C
O=C(O)C[S+]([O-])c1cc(NS(=O)(=O)c2ccc(Br)cc2)c2ccccc2c1O (stereo not drawn) [Embodiment 11]	1.897	slightly hygroscopic	
O=C(O)C[S+]([O-])c1cc(NS(=O)(=O)c2ccc(Br)cc2)c2ccccc2c1O (stereo not drawn) [Embodiment 13]	0.439	slightly hygroscopic	
O=C(O)C[S+]([O-])c1cc(NS(=O)(=O)c2ccc(Br)cc2)c2ccccc2c1O (stereo not drawn) [Embodiment 10]	0.2033	slightly hygroscopic	
O=C(O)C[S+]([O-])c1cc(NS(=O)(=O)c2ccc(Br)cc2)c2ccccc2c1O (stereo not drawn) [Embodiment 6]	7.275		
O=C(O)C[S+]([O-])c1cc(NS(=O)(=O)c2ccc(Br)cc2)c2ccccc2c1O (stereo not drawn) [Embodiment 9]	0.7884	slightly hygroscopic	
O=C(O)C[S+]([O-])c1cc(NS(=O)(=O)c2ccc(Br)cc2)c2ccccc2c1O (stereo not drawn) [Embodiment 5]	2.655	slightly hygroscopic	
O=C(O)C[S+]([O-])c1cc(NS(=O)(=O)c2ccc(Br)cc2)c2ccccc2c1O (stereo not drawn) [Embodiment 2]			Crystal form conversion / relative stability in suspension competition test ([1]; listed as crystal form B): able to be converted into crystal form A, D; Crystal form conversion on heat treatment ([1]; heating to 106° C. and then cooling to room temperature, nitrogen protection): converted into crystal form C
O=C(O)C[S+]([O-])c1cc(NS(=O)(=O)c2ccc(Br)cc2)c2ccccc2c1O (stereo not drawn) [Embodiment 7]	2.313	slightly hygroscopic	
O=C(O)C[S+]([O-])c1cc(NS(=O)(=O)c2ccc(Br)cc2)c2ccccc2c1O (stereo not drawn) [Embodiment 3]			Crystal form conversion / relative stability in suspension competition test ([1]; listed as crystal form C): able to be converted into crystal form A, D
O=C(O)C[S+]([O-])c1cc(NS(=O)(=O)c2ccc(Br)cc2)c2ccccc2c1O (stereo not drawn) [Embodiment 12]	6.026		
